What all share (assay type): ADME, organism-based
Data set [1] relates to Brain. The data set is described as follows: Unbound fraction in CD1 mouse brain at 25 mg/kg, po administered as single dose measured at 1 hr post dose by LC-MS/MS analysis. The note with it: in vivo.
Data set [2] can be described thus: AUC in CD1 mouse at 25 mg/kg, po. The note with it: in vivo.
Data set [3] concerns Brain. The data set is described as follows: Unbound fraction in CD1 mouse brain at 25 mg/kg, po administered as single dose measured at 6 hrs post dose by LC-MS/MS analysis. The note with it: in vivo.
Data set [4] is described as follows: Ratio of unbound fraction in CD1 mouse brain to plasma at 50 mg/kg, po after 6 hrs by LC-MS/MS analysis. The note with it: read-out: K(p,uu,brain).
The nature of data set [5]: Ratio of unbound fraction in CD1 mouse brain to plasma at 25 mg/kg, po after 6 hrs by LC-MS/MS analysis. The note with it: read-out: K(p,uu,brain).

These results are taken from ChEMBL document CHEMBL3813614 (ACS Med Chem Lett, 2016).

One may read the AUC as the area under the concentration-time curve, a measure of exposure. In the case of `CC1(C)OCCn2c1nc1c(N3CCOCC3)nc(-c3cnc(N)nc3)nc12` [PAXALISIB], the “Drug uptake(free)” value in the data set with Brain [1] worked out at 0.32 µM; with Brain [3] it was 0.16 µM. Further, the AUC in data set [2] is 47 µM·h.

Take `COC1(c2sc3c(N4CCOCC4)nc(-c4cnc(N)nc4)nc3c2C)COC1`: the Kp uu at 6 h in data set [4] was 0.4.

Turning to `COC(C)(C)c1cc2nc(-c3cnc(N)nc3)nc(N3CCOCC3)c2s1`, the Kp uu at 6 h in data set [5] amounted to 0.4.
